These compounds were tested on late watergrass (assay: Test Example 1: herbicidal activity, application before weed generation under submerged conditions (Table 16, symbol A)). Settings: 320 g/ha applied herbicide.
Type: in vivo, late watergrass (Echinochloa oryzicola)
In short: (§1)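 Emulsion formulation, water-diluted to set dose, was put onto the flooded surface (4 cm depth, alluvial soil) the same day weeds were sown and 2.5-leaf rice transplanted. After 3 weeks at 25-30 °C under glass, each species was rated 0 (≤5% kill) to 5 (≥90% kill).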

SMILES | Herbicidal effect on A: late watergrass (grade 0-5)
CCc1ccc(-c2sc3ccc(F)cc3c2-c2c(O)c(C)nn(C)c2=O)cc1 [2-207] | 2 (Herbicidal rate of 20% or more and less than 40%)
Cc1nn(C)c(=O)c(-c2c(-c3cccc(OCC(C)C)c3)sc3ccc(F)cc23)c1O [2-221] | 5 (Herbicidal rate of 90% or more (almost completely withered))
Cc1nn(C)c(=O)c(-c2c(-c3cccc(OC(C)(C)C)c3)sc3ccc(F)cc23)c1O [2-223] | 4 (Herbicidal rate of 70% or more and less than 90%)

Each compound was assayed on Japanese bulrush (assay: Test Example 1: herbicidal activity, application before weed generation under submerged conditions (Table 16, symbol B)). Settings: 320 g/ha applied herbicide.
Type: in vivo, Japanese bulrush (Schoenoplectus juncoides)
In short: as §1

SMILES | Herbicidal effect on B: Japanese bulrush (grade 0-5)
CCc1ccc(-c2sc3ccc(F)cc3c2-c2c(O)c(C)nn(C)c2=O)cc1 [2-207] | 4 (Herbicidal rate of 70% or more and less than 90%)
Cc1nn(C)c(=O)c(-c2c(-c3cccc(OCC(C)C)c3)sc3ccc(F)cc23)c1O [2-221] | 5 (Herbicidal rate of 90% or more (almost completely withered))
Cc1nn(C)c(=O)c(-c2c(-c3cccc(OC(C)(C)C)c3)sc3ccc(F)cc23)c1O [2-223] | 4 (Herbicidal rate of 70% or more and less than 90%)

The compounds below were run on late watergrass (assay: Test Example 2: herbicidal activity, application during weed generation under submerged conditions (Table 17, symbol A)). Settings: AAH 320 g/ha; application during weed generation, submerged conditions.
Type: in vivo, late watergrass (Echinochloa oryzicola)
In short: (§2)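 Herbicide emulsion, diluted with water to the chosen amount, is applied onto 4 cm floodwater over alluvial soil where the weeds were co-sown and raised at 25–30° C. Application timing: 1–2 leaves. Assessment: three weeks afterwards.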

SMILES | herbicidal effect rating, A: late watergrass
CCc1ccc(-c2sc3ccc(F)cc3c2-c2c(O)c(C)nn(C)c2=O)cc1 [2-207] | 3 (Herbicidal rate of 40% or more and less than 70%)
Cc1nn(C)c(=O)c(-c2c(-c3cccc(OCC(C)C)c3)sc3ccc(F)cc23)c1O [2-221] | 5 (Herbicidal rate of 90% or more (almost completely withered))
Cc1nn(C)c(=O)c(-c2c(-c3cccc(OC(C)(C)C)c3)sc3ccc(F)cc23)c1O [2-223] | 3 (Herbicidal rate of 40% or more and less than 70%)

The compounds below were run on oval-leafed pondweed (assay: Test Example 2: herbicidal activity, application during weed generation under submerged conditions (Table 17, symbol C)). Settings: AAH 320 g/ha; application during weed generation, submerged conditions.
Type: in vivo, oval-leafed pondweed (Monochoria vaginalis)
In short: as §2

SMILES | herbicidal effect rating, C: oval-leafed pondweed
CCc1ccc(-c2sc3ccc(F)cc3c2-c2c(O)c(C)nn(C)c2=O)cc1 [2-207] | 1 (Herbicidal rate of 5% or more and less than 20%)
Cc1nn(C)c(=O)c(-c2c(-c3cccc(OCC(C)C)c3)sc3ccc(F)cc23)c1O [2-221] | 3 (Herbicidal rate of 40% or more and less than 70%)
Cc1nn(C)c(=O)c(-c2c(-c3cccc(OC(C)(C)C)c3)sc3ccc(F)cc23)c1O [2-223] | 0 (Herbicidal rate of 5% or less (almost no effect))

The compounds below were run on barnyard grass (assay: Test Example 3: herbicidal effect by foliage application, Wagner pot (Table 18, symbol H)). Settings: amount of applied herbicide 320 g/ha.
Type: in vivo, barnyard grass (Echinochloa crus-galli)
In short: (§3)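 Plants were sown in alluvial soil held under 0.1–0.5 cm standing water and grown 14 days in a greenhouse at 25–30 °C. An emulsifiable formulation, water-diluted to the set dose, was then sprayed onto the foliage, and effects were scored three weeks later using previously defined criteria.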

SMILES | herbicidal effect on H: barnyard grass
CCc1ccc(-c2sc3ccc(F)cc3c2-c2c(O)c(C)nn(C)c2=O)cc1 [2-207] | 4 (Herbicidal rate of 70% or more and less than 90%)
Cc1nn(C)c(=O)c(-c2c(-c3cccc(OCC(C)C)c3)sc3ccc(F)cc23)c1O [2-221] | 5 (Herbicidal rate of 90% or more (almost completely withered))
Cc1nn(C)c(=O)c(-c2c(-c3cccc(OC(C)(C)C)c3)sc3ccc(F)cc23)c1O [2-223] | 5 (Herbicidal rate of 90% or more (almost completely withered))

The compounds below were run on Chinese sprangletop (assay: Test Example 3: herbicidal effect by foliage application, Wagner pot (Table 18, symbol D)). Settings: amount of applied herbicide 320 g/ha.
Type: in vivo, chinese sprangletop (Leptochloa chinensis)
In short: as §3

SMILES | herbicidal effect on D: Chinese sprangletop
CCc1ccc(-c2sc3ccc(F)cc3c2-c2c(O)c(C)nn(C)c2=O)cc1 [2-207] | 5 (Herbicidal rate of 90% or more (almost completely withered))
Cc1nn(C)c(=O)c(-c2c(-c3cccc(OCC(C)C)c3)sc3ccc(F)cc23)c1O [2-221] | 5 (Herbicidal rate of 90% or more (almost completely withered))
Cc1nn(C)c(=O)c(-c2c(-c3cccc(OC(C)(C)C)c3)sc3ccc(F)cc23)c1O [2-223] | 3 (Herbicidal rate of 40% or more and less than 70%)

The compounds below were run on rice flat sedge (assay: Test Example 3: herbicidal effect by foliage application, Wagner pot (Table 18, symbol E)). Settings: amount of applied herbicide 320 g/ha.
Type: in vivo, rice flat sedge (Cyperus iria)
In short: as §3

SMILES | herbicidal effect on E: rice flat sedge
CCc1ccc(-c2sc3ccc(F)cc3c2-c2c(O)c(C)nn(C)c2=O)cc1 [2-207] | 5 (Herbicidal rate of 90% or more (almost completely withered))
Cc1nn(C)c(=O)c(-c2c(-c3cccc(OCC(C)C)c3)sc3ccc(F)cc23)c1O [2-221] | 5 (Herbicidal rate of 90% or more (almost completely withered))
Cc1nn(C)c(=O)c(-c2c(-c3cccc(OC(C)(C)C)c3)sc3ccc(F)cc23)c1O [2-223] | 4 (Herbicidal rate of 70% or more and less than 90%)

Each compound was assayed on Italian ryegrass (assay: Test Example 4: herbicidal effect by soil treatment (Table 19, symbol K)). Settings: amount of applied herbicide 320 g/ha.
Type: in vivo, Italian ryegrass (Lolium multiflorum)
In short: (§4)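 Herbicidal effect was rated 3 weeks after treatment, using the scoring criteria of an earlier test. The compound, formulated as an emulsion and diluted in water to a set herbicide amount, had been sprayed uniformly on soil over freshly sown seeds. Growth took place in a greenhouse at 25° C. to 30° C.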

SMILES | K: Italian ryegrass, herbicidal effect rating | herbicidal effect on K: Italian ryegrass
CCc1ccc(-c2sc3ccc(F)cc3c2-c2c(O)c(C)nn(C)c2=O)cc1 [2-207] | 4 (Herbicidal rate of 70% or more and less than 90%) | –
Cc1nn(C)c(=O)c(-c2c(-c3cccc(OCC(C)C)c3)sc3ccc(F)cc23)c1O [2-221] | 4 (Herbicidal rate of 70% or more and less than 90%) | –
Cc1nn(C)c(=O)c(-c2c(-c3cccc(OC(C)(C)C)c3)sc3ccc(F)cc23)c1O [2-223] | – | 0 (Herbicidal rate of 5% or less (almost no effect))

What follows are compounds tested on windgrass (assay: Test Example 4: herbicidal effect by soil treatment (Table 19, symbol L)). Settings: amount of applied herbicide 320 g/ha.
Type: in vivo, windgrass (Apera spica-venti)
In short: as §4

SMILES | L: windgrass, herbicidal effect rating | herbicidal effect on L: windgrass
CCc1ccc(-c2sc3ccc(F)cc3c2-c2c(O)c(C)nn(C)c2=O)cc1 [2-207] | 3 (Herbicidal rate of 40% or more and less than 70%) | –
Cc1nn(C)c(=O)c(-c2c(-c3cccc(OCC(C)C)c3)sc3ccc(F)cc23)c1O [2-221] | 3 (Herbicidal rate of 40% or more and less than 70%) | –
Cc1nn(C)c(=O)c(-c2c(-c3cccc(OC(C)(C)C)c3)sc3ccc(F)cc23)c1O [2-223] | – | 0 (Herbicidal rate of 5% or less (almost no effect))

Each compound was assayed on redroot pigweed (assay: Test Example 4: herbicidal effect by soil treatment (Table 19, symbol N)). Settings: amount of applied herbicide 320 g/ha.
Type: in vivo, redroot pigweed (Amaranthus retroflexus)
In short: as §4

SMILES | N: redroot pigweed, herbicidal effect rating | herbicidal effect on N: redroot pigweed
CCc1ccc(-c2sc3ccc(F)cc3c2-c2c(O)c(C)nn(C)c2=O)cc1 [2-207] | 5 (Herbicidal rate of 90% or more (almost completely withered)) | –
Cc1nn(C)c(=O)c(-c2c(-c3cccc(OCC(C)C)c3)sc3ccc(F)cc23)c1O [2-221] | 5 (Herbicidal rate of 90% or more (almost completely withered)) | –
Cc1nn(C)c(=O)c(-c2c(-c3cccc(OC(C)(C)C)c3)sc3ccc(F)cc23)c1O [2-223] | – | 3 (Herbicidal rate of 40% or more and less than 70%)

The compounds below were run on southern crabgrass (assay: Test Example 5: herbicidal effect by foliage application, plastic box (Table 20, symbol F)). Settings: foliage application, 320 g/ha, evaluated three weeks after application.
Type: in vivo, southern crabgrass (Digitaria ciliaris)
In short: (§5)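 Foliar spray test: emulsion formulation diluted in water to a set application rate, sprayed onto 14-day-old plants raised in diluvial soil at 25° C to 30° C under glass. Both herbicidal effect and crop effect rated visually three weeks later.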

SMILES | herbicidal effect on F: southern crabgrass (criteria 0-5)
CCc1ccc(-c2sc3ccc(F)cc3c2-c2c(O)c(C)nn(C)c2=O)cc1 [2-207] | 4 (Herbicidal rate of 70% or more and less than 90%)
Cc1nn(C)c(=O)c(-c2c(-c3cccc(OCC(C)C)c3)sc3ccc(F)cc23)c1O [2-221] | 5 (Herbicidal rate of 90% or more (almost completely withered))
Cc1nn(C)c(=O)c(-c2c(-c3cccc(OC(C)(C)C)c3)sc3ccc(F)cc23)c1O [2-223] | 3 (Herbicidal rate of 40% or more and less than 70%)

The compounds below were run on green foxtail (assay: Test Example 5: herbicidal effect by foliage application, plastic box (Table 20, symbol G)). Settings: foliage application, 320 g/ha, evaluated three weeks after application.
Type: in vivo, green foxtail (Setaria viridis)
In short: as §5

SMILES | herbicidal effect on G: green foxtail (criteria 0-5)
CCc1ccc(-c2sc3ccc(F)cc3c2-c2c(O)c(C)nn(C)c2=O)cc1 [2-207] | 4 (Herbicidal rate of 70% or more and less than 90%)
Cc1nn(C)c(=O)c(-c2c(-c3cccc(OCC(C)C)c3)sc3ccc(F)cc23)c1O [2-221] | 5 (Herbicidal rate of 90% or more (almost completely withered))
Cc1nn(C)c(=O)c(-c2c(-c3cccc(OC(C)(C)C)c3)sc3ccc(F)cc23)c1O [2-223] | 1 (Herbicidal rate of 5% or more and less than 20%)

Each compound was assayed on barnyard grass (assay: Test Example 5: herbicidal effect by foliage application, plastic box (Table 20, symbol H)). Settings: foliage application, 320 g/ha, evaluated three weeks after application.
Type: in vivo, barnyard grass (Echinochloa crus-galli)
In short: as §5

SMILES | herbicidal effect on H: barnyard grass (criteria 0-5)
CCc1ccc(-c2sc3ccc(F)cc3c2-c2c(O)c(C)nn(C)c2=O)cc1 [2-207] | 4 (Herbicidal rate of 70% or more and less than 90%)
Cc1nn(C)c(=O)c(-c2c(-c3cccc(OCC(C)C)c3)sc3ccc(F)cc23)c1O [2-221] | 5 (Herbicidal rate of 90% or more (almost completely withered))
Cc1nn(C)c(=O)c(-c2c(-c3cccc(OC(C)(C)C)c3)sc3ccc(F)cc23)c1O [2-223] | 4 (Herbicidal rate of 70% or more and less than 90%)

These compounds were tested on wild oat (assay: Test Example 5: herbicidal effect by foliage application, plastic box (Table 20, symbol I)). Settings: foliage application, 320 g/ha, evaluated three weeks after application.
Type: in vivo, wild oat (Avena fatua)
In short: as §5

SMILES | herbicidal effect on I: wild oat (criteria 0-5)
CCc1ccc(-c2sc3ccc(F)cc3c2-c2c(O)c(C)nn(C)c2=O)cc1 [2-207] | 3 (Herbicidal rate of 40% or more and less than 70%)
Cc1nn(C)c(=O)c(-c2c(-c3cccc(OCC(C)C)c3)sc3ccc(F)cc23)c1O [2-221] | 5 (Herbicidal rate of 90% or more (almost completely withered))
Cc1nn(C)c(=O)c(-c2c(-c3cccc(OC(C)(C)C)c3)sc3ccc(F)cc23)c1O [2-223] | 1 (Herbicidal rate of 5% or more and less than 20%)

These compounds were tested on blackgrass (assay: Test Example 5: herbicidal effect by foliage application, plastic box (Table 20, symbol J)). Settings: foliage application, 320 g/ha, evaluated three weeks after application.
Type: in vivo, blackgrass (Alopecurus myosuroides)
In short: as §5

SMILES | herbicidal effect on J: blackgrass (criteria 0-5)
CCc1ccc(-c2sc3ccc(F)cc3c2-c2c(O)c(C)nn(C)c2=O)cc1 [2-207] | 4 (Herbicidal rate of 70% or more and less than 90%)
Cc1nn(C)c(=O)c(-c2c(-c3cccc(OCC(C)C)c3)sc3ccc(F)cc23)c1O [2-221] | 5 (Herbicidal rate of 90% or more (almost completely withered))
Cc1nn(C)c(=O)c(-c2c(-c3cccc(OC(C)(C)C)c3)sc3ccc(F)cc23)c1O [2-223] | 0 (Herbicidal rate of 5% or less (almost no effect))

Each compound was assayed on persian speedwell (assay: Test Example 5: herbicidal effect by foliage application, plastic box (Table 20, symbol R)). Settings: foliage application, 320 g/ha, evaluated three weeks after application.
Type: in vivo, Persian speedwell (Veronica persica)
In short: as §5

SMILES | herbicidal effect on R: persian speedwell (criteria 0-5)
CCc1ccc(-c2sc3ccc(F)cc3c2-c2c(O)c(C)nn(C)c2=O)cc1 [2-207] | 5 (Herbicidal rate of 90% or more (almost completely withered))
Cc1nn(C)c(=O)c(-c2c(-c3cccc(OCC(C)C)c3)sc3ccc(F)cc23)c1O [2-221] | 5 (Herbicidal rate of 90% or more (almost completely withered))
Cc1nn(C)c(=O)c(-c2c(-c3cccc(OC(C)(C)C)c3)sc3ccc(F)cc23)c1O [2-223] | 5 (Herbicidal rate of 90% or more (almost completely withered))

Source: patent publication US20230085307A1, “PYRIDAZINONE COMPOUND AND HERBICIDE” (NISSAN CHEMICAL CORPORATION, priority 2019, published 2023)
